Test results published in patent US11697648B2, “Fused pyrimidine pyridinone compounds as JAK inhibitors” (THERAVANCE BIOPHARMA R&D IP, LLC, priority 2019, dated 2023).

Assays:
JAK1 = JAK1 (Homo sapiens (Human), UniProt P23458); experiment: Biochemical JAK1 kinase assay (LanthaScreen)
Outline: (§1)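 GST-JAK + GFP-STAT1 peptide, HEPES pH 7.5/MgCl2/EGTA/Brij-35 buffer; cpd preincubation 1 h RT; ATP start, 1 h RT; stop with 10 mM EDTA + 2 nM Tb-anti-pSTAT1; TR-FRET 520/495. 4-parameter IC50 → pKi (Cheng-Prusoff).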

[1] = system: IL-2 stimulated STAT5 phosphorylation in Tall-1 human T cell line (JAK3); experiment: Cellular JAK3 potency assay: inhibition of IL-2 stimulated pSTAT5 in Tall-1 T cells; format: cell-based; details: IL-2 stimulated pSTAT5, Tall-1 T cells
Outline: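 AlphaLISA SureFire Ultra measures STAT5 Tyr694/699 phosphorylation in lysed Tall-1 human T cells. Cells were exposed to compound for 1 h at 37 °C before a 30 min IL-2 challenge (300 ng/ml final). Values are pIC50 means with standard deviation from signal-versus-concentration curves.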

Caco-2 cell monolayers = experiment: Caco-2 permeation assay; format: in vitro ADME; details: 5 μM, A-B direction, with Verapamil (25 μM)
Outline: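 Passive A-to-B permeability with P-gp inhibited by verapamil (25 μM); compound at 5 μM, n=2. Both compartments sampled at t0 and t120 and quantified by LC-MS/MS, giving apparent permeability in cm/sec from flux, area and concentration.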

JAK3 = JAK3 (Homo sapiens (Human), UniProt P52333); experiment: Biochemical JAK3 kinase assay (LanthaScreen); details: for JAK3 (pKi)-JAK1 (pKi): selectivity JAK3 over JAK1, difference of pKi
Sequence of JAK3 (P52333 whole entry): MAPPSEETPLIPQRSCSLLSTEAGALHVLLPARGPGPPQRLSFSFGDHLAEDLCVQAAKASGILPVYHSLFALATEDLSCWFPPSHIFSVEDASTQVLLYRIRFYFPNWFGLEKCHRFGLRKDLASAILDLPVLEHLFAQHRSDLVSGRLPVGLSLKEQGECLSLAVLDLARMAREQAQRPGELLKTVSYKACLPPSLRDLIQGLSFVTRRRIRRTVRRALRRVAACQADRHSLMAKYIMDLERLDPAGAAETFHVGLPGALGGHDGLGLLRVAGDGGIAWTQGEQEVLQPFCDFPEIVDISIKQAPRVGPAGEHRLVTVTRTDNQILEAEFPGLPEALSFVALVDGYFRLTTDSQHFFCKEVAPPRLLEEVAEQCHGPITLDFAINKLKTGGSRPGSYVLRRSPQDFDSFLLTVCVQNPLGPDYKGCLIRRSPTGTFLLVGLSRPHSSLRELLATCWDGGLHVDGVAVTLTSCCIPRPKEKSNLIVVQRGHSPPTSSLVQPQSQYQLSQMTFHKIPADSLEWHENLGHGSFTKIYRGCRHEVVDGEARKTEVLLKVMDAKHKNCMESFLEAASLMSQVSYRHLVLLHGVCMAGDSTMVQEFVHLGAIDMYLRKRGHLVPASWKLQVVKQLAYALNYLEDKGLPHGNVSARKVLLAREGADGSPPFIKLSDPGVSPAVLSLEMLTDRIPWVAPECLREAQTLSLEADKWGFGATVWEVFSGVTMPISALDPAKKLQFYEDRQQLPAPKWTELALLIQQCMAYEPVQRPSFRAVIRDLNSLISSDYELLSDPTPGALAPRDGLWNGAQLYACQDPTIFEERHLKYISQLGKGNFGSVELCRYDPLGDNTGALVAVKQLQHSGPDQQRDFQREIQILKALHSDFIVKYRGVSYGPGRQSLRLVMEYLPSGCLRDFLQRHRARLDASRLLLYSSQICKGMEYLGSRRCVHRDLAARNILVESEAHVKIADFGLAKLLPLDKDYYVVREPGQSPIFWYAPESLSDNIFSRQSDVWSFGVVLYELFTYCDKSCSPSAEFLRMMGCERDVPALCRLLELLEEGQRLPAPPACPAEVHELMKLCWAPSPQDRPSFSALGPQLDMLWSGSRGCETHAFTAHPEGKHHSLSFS
Outline: as §1

[2] = Colon and plasma mouse pharmacokinetics; format: in vivo; details: mouse, colon tissue / plasma; male Balb/c mice, 10 mg/kg PO; ratio of the colon AUC to the plasma AUC
Method: Assay 5: Colon and Plasma Mouse Pharmacokinetics
To 6 male Balb/c mice was administered 10 mg/kg of compound in 1% HPMC+0.1% Tween-80 by PO administration. At 0.5, 2 and 6 hours after dose administration, animals were anesthetized, and terminal blood samples were collected by cardiac puncture, followed by collection of colon contents and colon tissue.
Blood samples were collected into K2EDTA and stored on wet ice until processed to plasma by centrifugation (12000 rpm at 4° C.). Plasma samples were transferred to cluster tubes and placed on dry ice prior to freezer storage. The colon contents from each animal were collected at each terminal blood collection time point. The colon tissues were flushed with saline and patted dry. The colon and colon content tissues were homogenized using sterile water containing 0.1% formic acid 9:1 (water:tissue, v/w). The homogenized tissues and colon contents were transferred to cluster tubes and placed on dry ice prior to freezer storage. All samples were analyzed using LC/MS/MS against analytical standards.
The composite pharmacokinetic parameters of the compounds were determined by non-compartmental analysis using Phoenix WinNonlin Version 6 (Certara, St. Louis, Mo.) and using mean values from 2 animals/time point. For plasma concentrations below the quantification limit (BQL), the lowest concentration measurable or the BLOQ (below limit of quantification) was used.
A colon to plasma ratio was determined as the ratio of the colon AUC to the plasma AUC.

JAK2 = JAK2 (Homo sapiens (Human), UniProt O60674); experiment: Biochemical JAK2 kinase assay (LanthaScreen)
Sequence of JAK2 (O60674 whole entry): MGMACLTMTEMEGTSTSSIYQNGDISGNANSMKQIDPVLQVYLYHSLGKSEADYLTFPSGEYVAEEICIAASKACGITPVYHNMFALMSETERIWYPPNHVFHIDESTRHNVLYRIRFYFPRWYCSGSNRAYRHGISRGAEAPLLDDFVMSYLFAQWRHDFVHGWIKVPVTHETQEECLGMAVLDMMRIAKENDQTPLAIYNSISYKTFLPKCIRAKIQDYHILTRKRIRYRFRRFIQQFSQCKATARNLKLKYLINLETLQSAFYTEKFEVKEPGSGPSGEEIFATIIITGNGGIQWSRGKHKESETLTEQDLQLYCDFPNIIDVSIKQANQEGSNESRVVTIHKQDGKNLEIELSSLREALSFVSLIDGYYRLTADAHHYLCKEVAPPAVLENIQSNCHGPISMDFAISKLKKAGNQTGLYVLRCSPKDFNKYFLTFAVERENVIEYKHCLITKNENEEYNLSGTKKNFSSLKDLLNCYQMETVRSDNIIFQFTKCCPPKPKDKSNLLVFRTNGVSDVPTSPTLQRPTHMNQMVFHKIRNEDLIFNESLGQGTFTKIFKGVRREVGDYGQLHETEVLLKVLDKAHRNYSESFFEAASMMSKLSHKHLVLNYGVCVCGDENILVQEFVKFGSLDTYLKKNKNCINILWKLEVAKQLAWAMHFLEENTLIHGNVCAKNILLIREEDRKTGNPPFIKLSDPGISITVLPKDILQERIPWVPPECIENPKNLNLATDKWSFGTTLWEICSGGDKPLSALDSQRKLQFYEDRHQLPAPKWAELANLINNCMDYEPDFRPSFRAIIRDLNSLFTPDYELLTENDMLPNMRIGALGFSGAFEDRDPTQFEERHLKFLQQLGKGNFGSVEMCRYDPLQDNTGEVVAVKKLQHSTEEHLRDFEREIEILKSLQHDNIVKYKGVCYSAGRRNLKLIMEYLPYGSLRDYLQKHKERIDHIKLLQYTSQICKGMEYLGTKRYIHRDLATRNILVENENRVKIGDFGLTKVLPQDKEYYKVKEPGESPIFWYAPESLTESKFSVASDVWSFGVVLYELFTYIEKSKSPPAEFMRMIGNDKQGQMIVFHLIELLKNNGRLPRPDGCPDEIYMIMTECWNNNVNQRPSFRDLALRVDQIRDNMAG
Outline: as §1

Tyk2 = Tyk2 (Homo sapiens (Human), UniProt P29597); experiment: Biochemical Tyk2 kinase assay (LanthaScreen)
Sequence of Tyk2 (P29597 whole entry): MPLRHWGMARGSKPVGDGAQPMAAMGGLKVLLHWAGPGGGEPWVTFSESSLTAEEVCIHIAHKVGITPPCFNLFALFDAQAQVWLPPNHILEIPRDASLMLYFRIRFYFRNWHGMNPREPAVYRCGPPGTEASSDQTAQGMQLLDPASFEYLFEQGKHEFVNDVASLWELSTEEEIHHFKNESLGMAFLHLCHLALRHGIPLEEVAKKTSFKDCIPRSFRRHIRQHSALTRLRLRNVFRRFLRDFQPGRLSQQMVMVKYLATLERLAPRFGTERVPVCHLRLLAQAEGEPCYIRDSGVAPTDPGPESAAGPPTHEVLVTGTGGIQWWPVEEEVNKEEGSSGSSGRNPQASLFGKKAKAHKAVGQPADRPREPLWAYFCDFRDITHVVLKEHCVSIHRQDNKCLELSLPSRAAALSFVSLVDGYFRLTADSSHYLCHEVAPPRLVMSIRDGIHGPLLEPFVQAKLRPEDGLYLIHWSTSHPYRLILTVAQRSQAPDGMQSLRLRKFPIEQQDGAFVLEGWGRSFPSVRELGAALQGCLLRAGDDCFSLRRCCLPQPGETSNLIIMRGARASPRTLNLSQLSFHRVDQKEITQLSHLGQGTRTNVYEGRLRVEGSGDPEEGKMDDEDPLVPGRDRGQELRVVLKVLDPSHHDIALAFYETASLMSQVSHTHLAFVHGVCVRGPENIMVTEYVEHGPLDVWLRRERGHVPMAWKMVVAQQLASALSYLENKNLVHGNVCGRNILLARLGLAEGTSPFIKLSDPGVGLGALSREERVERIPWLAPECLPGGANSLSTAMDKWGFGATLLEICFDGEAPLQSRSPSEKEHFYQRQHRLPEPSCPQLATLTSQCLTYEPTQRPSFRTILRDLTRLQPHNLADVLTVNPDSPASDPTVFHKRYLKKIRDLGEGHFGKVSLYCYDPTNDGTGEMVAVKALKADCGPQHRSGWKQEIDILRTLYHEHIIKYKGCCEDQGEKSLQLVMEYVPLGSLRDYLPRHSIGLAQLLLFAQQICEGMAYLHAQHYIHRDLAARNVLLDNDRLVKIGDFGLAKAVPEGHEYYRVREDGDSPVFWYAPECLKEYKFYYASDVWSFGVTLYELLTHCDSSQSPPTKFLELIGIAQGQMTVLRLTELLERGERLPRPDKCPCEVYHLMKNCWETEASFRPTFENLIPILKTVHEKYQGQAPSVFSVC
Outline: as §1

Sequence of JAK1 (P23458 whole entry): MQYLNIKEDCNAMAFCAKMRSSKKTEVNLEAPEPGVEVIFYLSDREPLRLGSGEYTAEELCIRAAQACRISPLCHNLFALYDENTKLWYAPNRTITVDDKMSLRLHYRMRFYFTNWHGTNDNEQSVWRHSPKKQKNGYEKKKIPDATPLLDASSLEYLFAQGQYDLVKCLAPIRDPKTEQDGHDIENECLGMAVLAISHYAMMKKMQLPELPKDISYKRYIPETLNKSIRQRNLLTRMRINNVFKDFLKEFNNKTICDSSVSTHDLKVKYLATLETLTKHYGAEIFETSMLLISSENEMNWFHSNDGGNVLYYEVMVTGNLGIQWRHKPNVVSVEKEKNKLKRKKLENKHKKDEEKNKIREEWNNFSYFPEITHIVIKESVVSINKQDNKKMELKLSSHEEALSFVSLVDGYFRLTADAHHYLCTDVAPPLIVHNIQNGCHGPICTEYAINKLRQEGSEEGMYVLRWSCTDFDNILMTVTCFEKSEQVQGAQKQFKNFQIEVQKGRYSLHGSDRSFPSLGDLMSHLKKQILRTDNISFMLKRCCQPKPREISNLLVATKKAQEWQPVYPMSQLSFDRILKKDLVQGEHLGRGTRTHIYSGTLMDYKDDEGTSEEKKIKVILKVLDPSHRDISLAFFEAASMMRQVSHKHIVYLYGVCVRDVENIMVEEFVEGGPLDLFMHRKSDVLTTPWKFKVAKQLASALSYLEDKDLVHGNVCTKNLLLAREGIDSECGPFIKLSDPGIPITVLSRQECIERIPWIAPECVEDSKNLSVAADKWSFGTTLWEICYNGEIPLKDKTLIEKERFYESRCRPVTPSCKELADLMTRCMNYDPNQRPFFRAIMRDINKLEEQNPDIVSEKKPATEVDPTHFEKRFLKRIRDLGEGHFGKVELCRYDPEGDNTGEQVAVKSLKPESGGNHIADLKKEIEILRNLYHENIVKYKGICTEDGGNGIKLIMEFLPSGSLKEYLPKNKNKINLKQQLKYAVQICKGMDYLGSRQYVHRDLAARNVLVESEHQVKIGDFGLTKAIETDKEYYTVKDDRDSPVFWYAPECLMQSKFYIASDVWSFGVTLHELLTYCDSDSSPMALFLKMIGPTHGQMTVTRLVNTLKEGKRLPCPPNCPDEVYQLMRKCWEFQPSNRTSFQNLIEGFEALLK

SMILES	JAK 1 (pKi) (JAK1)	Tall-1 (pIC50) [1]	Caco Kp (Caco-2 cell monolayers)	JAK 3 (pKi) (JAK3)	JAK3 (pKi)-JAK1 (pKi) (JAK3)	Kp [2]	JAK 2 (pKi) (JAK2)	Tyk 2 (pKi) (Tyk2)
C=CC(=O)N1CCN(CCn2c(=O)ccc3cnc(Nc4ccc(N5CCSCC5)cc4)nc32)CC1 [Example 38]	E (E represents a pKi value of 7 or below (Ki of 100 nM or above))	B (B represents a pC50 value between 6.7 (included) and 7.5 (IC50 between 200 nM and 32 nM))	C (C represents a value between 10×10^−6 and 30×10^−6 cm/sec)	B (B represents pKi value between 9 and 10 (Ki between 1 nM and 0.1 nM))	A (A represents a value of 3 or above)	> 1000	E (E represents a pKi value of 7 or below (Ki of 100 nM or above))	E (E represents a pKi value of 7 or below (Ki of 100 nM or above))
C=CC(=O)N1CC(CCn2c(=O)ccc3cnc(Nc4cccc(CN5CCN(C)CC5)c4)nc32)C1 [Example 52]	E (E represents a pKi value of 7 or below (Ki of 100 nM or above))	B (B represents a pC50 value between 6.7 (included) and 7.5 (IC50 between 200 nM and 32 nM))	A (A represents a value below 5×10^−6 cm/sec)	B (B represents pKi value between 9 and 10 (Ki between 1 nM and 0.1 nM))	A (A represents a value of 3 or above)	> 100	E (E represents a pKi value of 7 or below (Ki of 100 nM or above))	E (E represents a pKi value of 7 or below (Ki of 100 nM or above))
C=CC(=O)N1CC(CCn2c(=O)ccc3cnc(Nc4ccc(C5=CCN(C)CC5)cc4)nc32)C1 [Example 74]	E (E represents a pKi value of 7 or below (Ki of 100 nM or above))	B (B represents a pC50 value between 6.7 (included) and 7.5 (IC50 between 200 nM and 32 nM))	A (A represents a value below 5×10^−6 cm/sec)	B (B represents pKi value between 9 and 10 (Ki between 1 nM and 0.1 nM))	A (A represents a value of 3 or above)	> 100	E (E represents a pKi value of 7 or below (Ki of 100 nM or above))	E (E represents a pKi value of 7 or below (Ki of 100 nM or above))
C=CC(=O)N1CC(CCn2c(=O)ccc3cnc(Nc4ccc(N5CCN(S(=O)(=O)CCOC)CC5)cc4)nc32)C1 [Example 76]	E (E represents a pKi value of 7 or below (Ki of 100 nM or above))	B (B represents a pC50 value between 6.7 (included) and 7.5 (IC50 between 200 nM and 32 nM))	B (B represents a value between 5×10^−6 and 10×10^−6 cm/sec)	B (B represents pKi value between 9 and 10 (Ki between 1 nM and 0.1 nM))	A (A represents a value of 3 or above)	> 14	E (E represents a pKi value of 7 or below (Ki of 100 nM or above))	E (E represents a pKi value of 7 or below (Ki of 100 nM or above))
C=CC(=O)N1CCN(CCn2c(=O)ccc3cnc(Nc4ccc(N5CCN(C(C)=O)CC5)cc4)nc32)CC1 [Example 79]	E (E represents a pKi value of 7 or below (Ki of 100 nM or above))	B (B represents a pC50 value between 6.7 (included) and 7.5 (IC50 between 200 nM and 32 nM))	A (A represents a value below 5×10^−6 cm/sec)	B (B represents pKi value between 9 and 10 (Ki between 1 nM and 0.1 nM))	A (A represents a value of 3 or above)	> 1000	E (E represents a pKi value of 7 or below (Ki of 100 nM or above))	E (E represents a pKi value of 7 or below (Ki of 100 nM or above))
C=CC(=O)N1CC(CCn2c(=O)ccc3cnc(Nc4ccc(N(CC)CC)cc4)nc32)C1 [Example 88]	E (E represents a pKi value of 7 or below (Ki of 100 nM or above))	B (B represents a pC50 value between 6.7 (included) and 7.5 (IC50 between 200 nM and 32 nM))	D (D represents a value over 30×10^−6 cm/sec)	A (A represents a pKi value≥10 (Ki≤0.1 nM))	A (A represents a value of 3 or above)	> 14	E (E represents a pKi value of 7 or below (Ki of 100 nM or above))	E (E represents a pKi value of 7 or below (Ki of 100 nM or above))
C=CC(=O)N1CC(CCn2c(=O)ccc3cnc(Nc4ccc(CCN(C)C)cc4)nc32)C1 [Example 89]	E (E represents a pKi value of 7 or below (Ki of 100 nM or above))	A (A represents a pIC50 value≥7.5 (IC50≤32 nM))	A (A represents a value below 5×10^−6 cm/sec)	B (B represents pKi value between 9 and 10 (Ki between 1 nM and 0.1 nM))	A (A represents a value of 3 or above)	> 100	E (E represents a pKi value of 7 or below (Ki of 100 nM or above))	E (E represents a pKi value of 7 or below (Ki of 100 nM or above))
C=CC(=O)N1CC(CCn2c(=O)ccc3cnc(Nc4ccc(N5CCN(C(=O)N(C)C)CC5)cc4)nc32)C1 [Example 92]	E (E represents a pKi value of 7 or below (Ki of 100 nM or above))	B (B represents a pC50 value between 6.7 (included) and 7.5 (IC50 between 200 nM and 32 nM))	A (A represents a value below 5×10^−6 cm/sec)	B (B represents pKi value between 9 and 10 (Ki between 1 nM and 0.1 nM))	A (A represents a value of 3 or above)	> 100	E (E represents a pKi value of 7 or below (Ki of 100 nM or above))	E (E represents a pKi value of 7 or below (Ki of 100 nM or above))
C=CC(=O)N1CC(CCn2c(=O)ccc3cnc(Nc4ccc(N5CCN(S(=O)(=O)C6COC6)CC5)cc4)nc32)C1 [Example 102]	E (E represents a pKi value of 7 or below (Ki of 100 nM or above))	B (B represents a pC50 value between 6.7 (included) and 7.5 (IC50 between 200 nM and 32 nM))	A (A represents a value below 5×10^−6 cm/sec)	A (A represents a pKi value≥10 (Ki≤0.1 nM))	A (A represents a value of 3 or above)	> 1000	E (E represents a pKi value of 7 or below (Ki of 100 nM or above))	E (E represents a pKi value of 7 or below (Ki of 100 nM or above))
C=CC(=O)N1CC(CCn2c(=O)ccc3cnc(Nc4cccc(N5CCN(C(=O)CSC)CC5)c4)nc32)C1 [Example 107]	E (E represents a pKi value of 7 or below (Ki of 100 nM or above))	B (B represents a pC50 value between 6.7 (included) and 7.5 (IC50 between 200 nM and 32 nM))	A (A represents a value below 5×10^−6 cm/sec)	B (B represents pKi value between 9 and 10 (Ki between 1 nM and 0.1 nM))	A (A represents a value of 3 or above)	> 50	E (E represents a pKi value of 7 or below (Ki of 100 nM or above))	E (E represents a pKi value of 7 or below (Ki of 100 nM or above))
